Measurements published in US20250051375A1, “ANTI-HIV COMPOUNDS” (Gilead Sciences, Inc., priority 2023, published 2025).
≈ marks a conversion by molar mass, not a printed value. Like-named read-outs stand apart in the source and are kept apart here.

Legend:
Solubility in FaSSIF = settings: for solubility at 2 h / solubility: 23 °C, pH 6.5, fassif, thermodynamic from solid; for solubility: FaSSIF (pH 6.5) solubility
Experimental: Buffer Preparation: Fasted State Simulated Intestinal Fluid (FaSSIF): Simulated Intestinal Fluid (SIF) powder containing a complex of Taurocholate and Lecithin (4:1 molar ratio) was obtained from Biorelevant. 0.056 g of SIF powder was added to 25 mL of buffer, adjusted to pH 6.5, containing 0.011 g of NaOH (pellets), 0.099 g of NaH2PO4 (monohydrate), and 0.155 g of NaCl. The buffer was prepared with HPLC H2O. The SIE powder was stirred until completely dissolved and allowed to stand for 2 hours.
Test Compounds: Each test compound was placed in a vial containing approximately 7 mg of material. Aliquots were weighed out for each assay media at each time point to be analyzed. The buffer was added to each vial such that the final dose concentration of 5 mg/mL was achieved. Samples were then vortexed for 5-10 seconds.
The plate was sealed with a pierceable heat seal and analyzed by HPLC-UV.

PBS Stability Assay = assay type: physicochemical; settings: buffer, pH 7.4, 2 μM, phosphate buffered saline pH 7.4; read-out: PBS T½
Experimental: Reagents. Stock solutions of test compounds in dimethyl sulfoxide (DMSO) having a final concentration of 10 mM were prepared and used in all experiments. Sekisui XenoTech (Kansas City, KS) provided pooled intestinal S9 fractions. All other chemicals were purchased from Sigma-Aldrich (St. Louis, MO) or VWR (West Chester, PA). Internal Standard/Quench (IS/Q) used to stop reactions was 100 nM labetalol in (by volume) formic acid (1%) and acetonitrile (99%).
PBS Stability Assay: For each test compound, an aliquot of the test compound was added to phosphate buffered saline (137 mM NaCl, 2.7 mM KCl, 10 mM phosphate buffer), pH 7.4. The incubation was initiated by the addition of the test compound to PBS to a final concentration of 2 μM. At 0, 10, 20, 30, 60 and 120 min, 25 μL aliquots of the incubation mixture were transferred to plates containing 225 μl of IS/Q solution. After quenching, the plates were centrifuged at 3000×g for 30 minutes. 150 μL aliquots of each supernatant were transferred to new plates and 150 μL water was added. Aliquots (10 μL) of the prepared samples were analyzed on a Thermo Q-Exactive mass spectrometer as described below.
Liquid Chromatography-Mass Spectrometry: Quantification of test compounds and control substrate was performed by analyte/internal standard peak area ratio (PAR) values measured on a Thermo Q-Exactive mass spectrometer coupled to a Dionex UltiMate 3000 HPLC with a Leap Technologies HTC PAL autosampler. The column used for analysis was a Thermo Scientific Hypersil GOLD (1.9 μm particle size, 50×2.1 mm). Mobile phase A consisted of 0.1% (v/v) formic acid in water. Mobile phase B consisted of 0.1% (v/v) formic acid in acetonitrile. Elution of analytes was achieved by a series of linear gradients varying the proportions of A and B. The mass spectrometer was calibrated on a weekly basis and mass tolerance of 5 ppm was used.
Data Analysis. Metabolic stabilities were determined by measuring the rates of disappearance of test compound and positive control substrate. Data (% of substrate remaining) were plotted on a semi-log scale and fitted using an exponential decline model:
where • Ct% of substrate remaining at time=t • C0% of substrate remaining at time=0 • t time • T½ half-life • The Half-life (T½) is determined by the following equation:
[formula] • Assuming a first-order reaction, the slope (k) is extrapolated from the aforementioned plotted data.

HIV-1 IIIB strain = experiment: MT-4 HIV Wild Type Virus Infection Assay (IIIB Virus); assay type: cell-based; settings: Human immunodeficiency virus 1, IIIB, MT4, 120 h, MT-4 cells acutely infected with HIV-1 IIIB, 5 day incubation, Cell-titer glo
Experimental: Test compounds and controls were serially diluted and spotted in replicate into 384 well black assay plates via acoustic transfer (Echo). MT-4 cells were grown in batch, centrifuged and resuspended into fresh CCM media (RPMI w/10% FBS, 1% PS) at 2×10^6 cells/ml. MT-4 cells were acutely infected with HIV-1 IIIB strain. The size of each infection mix was scaled by the number of sample plates to be tested. Each infection mix was transferred into 5 mL closed tubes and nutated rapidly on a shaker at 37° C. incubator for 1 hour. The infection mixes were then diluted 25× in fresh cell culture media and then added to assay plates at 40 μL per well using a ViaFlo 384 pipettor. After 5 day incubation at 37° C. in a CO2 incubator, assay plates were processed with Cell-titer glo reagent using a ViaFlo 384 with an addition/mixing program. Plates were read immediately on Envision reader. Assay signals were plotted and dose response curves generated to determine individual compound EC50s.

[1] = molecular target: bovine intestinal alkaline phosphatase (Bos taurus (Bovine), UniProt P19111); experiment: BiALP: conversion by bovine intestinal alkaline phosphatase; assay type: in vitro ADME; settings: 2 μM substrate, 100 ng/mL iALP, Tris pH 7.8, 37° C., 60 minutes
Chain of bovine intestinal alkaline phosphatase (P19111 20-506): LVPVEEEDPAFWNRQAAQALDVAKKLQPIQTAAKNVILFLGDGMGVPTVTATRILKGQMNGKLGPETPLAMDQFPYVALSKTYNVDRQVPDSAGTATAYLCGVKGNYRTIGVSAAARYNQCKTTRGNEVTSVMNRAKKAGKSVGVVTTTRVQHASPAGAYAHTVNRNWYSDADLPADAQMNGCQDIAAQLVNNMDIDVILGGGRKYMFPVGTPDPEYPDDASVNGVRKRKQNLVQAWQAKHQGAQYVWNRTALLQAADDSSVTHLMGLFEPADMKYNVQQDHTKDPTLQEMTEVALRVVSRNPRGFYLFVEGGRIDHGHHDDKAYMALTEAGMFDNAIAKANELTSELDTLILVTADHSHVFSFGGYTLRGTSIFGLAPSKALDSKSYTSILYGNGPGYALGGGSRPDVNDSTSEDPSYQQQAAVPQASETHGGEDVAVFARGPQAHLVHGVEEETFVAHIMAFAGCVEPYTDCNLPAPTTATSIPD
Experimental: Fosamprenavir and its parent compound (amprenavir) were purchased from Millipore Sigma (St. Louis, MO). Test compounds, Intermediate A, fosamprenavir, and amprenavir were each separately dissolved in dimethyl sulfoxide (DMSO) at a concentration of 10 mM to form stock solutions.
All other chemicals were purchased from Millipore Sigma (St. Louis, MO) and Thermo Fisher Scientific (Waltham, MA). […] Internal Standard/Quench (IS/Q) was 100 nM labetalol in 99:1 (v/v) acetonitrile/formic acid.
Incubations were performed with Tris buffer alone (0.1 M Tris-HCl pH 7.8 containing 1 mM MgCl2 and 1 mM ZnCl2) or the same Tris buffer further containing 100 ng/mL iALP (0.01 units/mL). Triplicate 100 μL aliquots of Tris buffer±iALP were warmed to 37° C. and the reactions were initiated by the addition of the test compound or fosamprenavir to obtain final substrate concentrations of 2 μM. Incubations were then continued at 37° C. At 60 minutes, reactions were terminated by the addition of 200 μl of IS/Q and mixed by pipette. […] Aliquots (150 μL) of the supernatants were transferred to fresh plates containing 150 μL of water. Aliquots (15 μL) of the diluted supernatants were analyzed by mass spectrometry as described below.
Quantification of the test compounds and fosamprenavir was performed by analyte/internal standard peak area ratios (PARs) with comparison to 2 μM Intermediate A and amprenavir, respectively. The LC instrumentation consisted of a Thermo Scientific Vanquish pump and a Thermo Hypersil Gold column (1.9 μm particle size, 2.1×50 mm). […] The MS instrument was a Thermo Q Exactive™ Plus operating in positive ionization mode with mass tolerance of 5 ppm and calibrated on a twice weekly basis.

[2] = FaSSIF pH 6.5, dose 5 mg/mL, 2-hour incubation, ambient temperature

Compound | FaSSIF (pH 6.5) solubility (Solubility in FaSSIF; [2]) [μg/mL] | half-life at 2 μM (PBS Stability Assay) [h] | EC50 (HIV-1 IIIB strain; read-out: EC50) [nM] | [Compound] [1] [nM] | solubility at 2 h (Solubility in FaSSIF) [µg/mL] | EC50 (HIV-1 IIIB strain) [nM] | biALP Intermediate A or [Amprenavir] (% of total) [1] | [Intermediate A] or [Amprenavir] ([1]; parent formed) [nM] | solubility (Solubility in FaSSIF; [2]) [µg/mL]
COC(=O)N[C@H](C(=O)N[C@@H](Cc1ccc(C#Cc2cnc(N3CC4CCC(C3)N4C3COC3)nc2)cc1)[C@H](CN(Cc1c(F)cc(-c2ccn(C(F)F)n2)cc1F)NC(=O)[C@@H](NC(=O)OC)C(C)(C)C(F)(F)F)OC(=O)OC(C)OC(=O)CC(C)(C)c1c(CC(=O)O)cc(C)cc1OP(=O)(O)O)C(C)(C)C(F)(F)F (stereo in doubt) [Example 64] | 165 | 8.43 | 11.1 | 1271 | – | – | – | – | –
COC(=O)N[C@H](C(=O)N[C@@H](Cc1ccc(C#Cc2cnc(N3CC4CCC(C3)N4C3COC3)nc2)cc1)[C@H](CN(Cc1c(F)cc(-c2ccn(C(F)F)n2)cc1F)NC(=O)[C@@H](NC(=O)OC)C(C)(C)C(F)(F)F)OC(=O)OCOC(=O)CC(C)(C)c1c(CC(=O)N2CC[C@H](C(=O)O)C2)cc(C)cc1OP(=O)(O)O)C(C)(C)C(F)(F)F [Example 75] | – | 4.77 | – | 1420.1 | 4170 (≈ 2520 µM) | 8.1 | – | – | –
COC(=O)N[C@H](C(=O)N[C@@H](Cc1ccc(C#Cc2cnc(N3CC4CCC(C3)N4C3COC3)nc2)cc1)[C@H](CN(Cc1c(F)cc(-c2ccn(C(F)F)n2)cc1F)NC(=O)[C@@H](NC(=O)OC)C(C)(C)C(F)(F)F)OC(=O)CC(C)(C)c1c(CC(=O)N(CCCC(=O)O)CC(=O)O)cc(C)cc1OP(=O)(O)O)C(C)(C)C(F)(F)F [Example 8] | – | 7.11 | – | 1709.4 | 3260 (≈ 2000 µM) | 230 | 8.4 % of total | 157.3 | –
COC(=O)N[C@H](C(=O)N[C@@H](Cc1ccc(C#Cc2cnc(N3CC4CCC(C3)N4C3COC3)nc2)cc1)[C@H](CN(Cc1c(F)cc(-c2ccn(C(F)F)n2)cc1F)NC(=O)[C@@H](NC(=O)OC)C(C)(C)C(F)(F)F)OC(=O)OCOC(=O)CC(C)(C)c1c(CC(=O)NC(C)(C)CCC(=O)O)cc(C)cc1OP(=O)(O)O)C(C)(C)C(F)(F)F [Example 73] | – | 6.36 | – | 1660.4 | 145 (≈ 86.7 µM) | 4.6 | – | – | –
COC(=O)N[C@H](C(=O)N[C@@H](Cc1ccc(C#Cc2cnc(N3CC4CCC(C3)N4C3COC3)nc2)cc1)[C@H](CN(Cc1c(F)cc(-c2ccn(C(F)F)n2)cc1F)NC(=O)[C@@H](NC(=O)OC)C(C)(C)C(F)(F)F)OC(=O)OCOC(=O)CC(C)(C)c1c(C)cc(C(=O)O)cc1OP(=O)(O)O)C(C)(C)C(F)(F)F [Example 2] | – | 6.52 | 2.1 | 1359.6 | – | – | – | – | 680 (≈ 440 µM)
COC(=O)N[C@H](C(=O)N[C@@H](Cc1ccc(C#Cc2cnc(N3CC4CCC(C3)N4C3COC3)nc2)cc1)[C@H](CN(Cc1c(F)cc(-c2ccn(C(F)F)n2)cc1F)NC(=O)[C@@H](NC(=O)OC)C(C)(C)C(F)(F)F)OC(=O)OCOC(=O)CC(C)(C)c1c(CC(=O)N2CCN(S(N)(=O)=O)CC2)cc(C)cc1OP(=O)(O)O)C(C)(C)C(F)(F)F [Example 85] | – | 2.27 | – | 1466.1 | < 1000 | 2.4 | – | – | –
COC(=O)N[C@H](C(=O)N[C@@H](Cc1ccc(C#Cc2cnc(N3CC4CCC(C3)N4C3COC3)nc2)cc1)[C@H](CN(Cc1c(F)cc(-c2ccn(C(F)F)n2)cc1F)NC(=O)[C@@H](NC(=O)OC)C(C)(C)C(F)(F)F)OC(=O)CC(C)(C)c1c(CC(=O)NC(CC(=O)O)CC(=O)O)cc(C)cc1OP(=O)(O)O)C(C)(C)C(F)(F)F [Example 43] | – | 4.82 | – | 1661.5 | 1920 (≈ 1190 µM) | 85.9 | – | – | –
COC(=O)N[C@H](C(=O)N[C@@H](Cc1ccc(C#Cc2cnc(N3CC4CCC(C3)N4C3COC3)nc2)cc1)[C@H](CN(Cc1c(F)cc(-c2ccn(C(F)F)n2)cc1F)NC(=O)[C@@H](NC(=O)OC)C(C)(C)C(F)(F)F)OC(=O)OCOC(=O)CC(C)(C)c1c(OP(=O)(O)O)cc(C(=O)O)cc1C(=O)O)C(C)(C)C(F)(F)F [Example 1] | – | 8.74 | 7.6 | 1318.1 | – | – | – | – | 5060 (≈ 3220 µM)
